Experimental data as given in US20090233907A1, “Pyridopyrimidine Derivatives and Their Use as PDE4 Inhibitors” (ASTRAZENECA AB, priority 2006, published 2009).
pIC50: −log10 of the molar value.

molecular target: T1, recombinant Human Phosphodiesterase B2 (PDE4B2) (Homo sapiens, UniProt Q07343); assay: Human Phosphodiesterase B2 Alpha Screen Assay; assay type: biochemical; conditions: Alpha Screen cAMP assay
Description: Human Phosphodiesterase B2 Alpha Screen Assay
The assay uses recombinant Human Phosphodiesterase B2 (PDE4B2) produced in house (PrAZL0133), stored at −20° C. The substrate uses cAMP, part of the Alpha Screen cAMP kit (Perkin Elmer, Cat# 6760625M), stored at 4° C. The Alpha Screen kit also includes biotinylated cAMP, acceptor and donor beads.
The assay additions were as follows: Test compounds and controls were added to white 384-well flat-bottom plates (Greiner, Cat# 781075), 0.2 μl in 100% DMSO, followed by 10 μl PDE4B2 in reaction buffer. The reaction buffer constitution was: 50 mM Tris (pH 7.5), 8.3 mM MgCl2, 1.7 mM EGTA and 0.01% (w/v) Brij®35. The enzyme and the compounds were incubated at room temperature for 15 minutes. Then 10 μl cAMP in reaction buffer was added. The assay was stopped after 60 minutes incubation at room temperature by adding 10 μl acceptor beads in detection buffer with 40 mM EDTA. The detection buffer constitution was: 5 mM Tris (pH 7.5), 0.1% (w/v) BSA and 0.1% (v/v) Tween 20. This addition followed by an addition of 10 μl donor beads in detection buffer, with biotinylated cAMP. The plates were then incubated, dark at room temperature, for 5 hours followed by measurement on a Fusion™-α analyser. IC50 values (presented in Table 4) were determined using Xlfit curve fitting using model 205.

T1 sequence (Q07343 1-564 isoform Q07343-2): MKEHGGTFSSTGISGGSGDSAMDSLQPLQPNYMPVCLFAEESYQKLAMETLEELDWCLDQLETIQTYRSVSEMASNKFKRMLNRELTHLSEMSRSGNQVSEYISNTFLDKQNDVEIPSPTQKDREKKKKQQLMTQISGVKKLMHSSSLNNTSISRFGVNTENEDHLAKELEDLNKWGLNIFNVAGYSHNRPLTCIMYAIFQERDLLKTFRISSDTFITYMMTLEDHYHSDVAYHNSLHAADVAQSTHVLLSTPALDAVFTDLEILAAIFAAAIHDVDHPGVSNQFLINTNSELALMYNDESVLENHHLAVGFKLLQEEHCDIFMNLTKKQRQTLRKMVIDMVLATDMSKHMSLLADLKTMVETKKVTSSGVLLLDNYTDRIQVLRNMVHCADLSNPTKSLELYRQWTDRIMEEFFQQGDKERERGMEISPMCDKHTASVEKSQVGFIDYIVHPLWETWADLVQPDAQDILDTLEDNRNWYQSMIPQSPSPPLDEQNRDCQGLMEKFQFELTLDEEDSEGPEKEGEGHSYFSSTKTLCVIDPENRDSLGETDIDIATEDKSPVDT

| SMILES | pIC50 |
| --- | --- |
| CC(C)CC(=O)N[C@H]1CC[C@@H](n2c(=O)c3cc(F)cnc3n(C3CCSCC3)c2=O)CC1 [Example 21, N-{cis-4-[6-fluoro-2,4-dioxo-1-(tetrahydro-2H-thiopyran-4-yl)-1,4-dihydropyrido[2,3-d]pyrimidin-3(2H)-yl]cyclohexyl}-3-methylbutanamide] | 8.33 |
| O=C(N[C@H]1CC[C@@H](n2c(=O)c3cc(F)cnc3n(C3CCSCC3)c2=O)CC1)c1ccccc1 [Example 23, N-{cis-4-[6-fluoro-2,4-dioxo-1-(tetrahydro-2H-thiopyran-4-yl)-1,4-dihydropyrido[2,3-d]pyrimidin-3(2H)-yl]cyclohexyl}benzamide] | 8.57 |
| O=C(N[C@H]1CC[C@@H](n2c(=O)c3cc(F)cnc3n(C3CCSCC3)c2=O)CC1)c1cccn2ccnc12 [Example 25, N-{cis-4-[6-fluoro-2,4-dioxo-1-(tetrahydro-2H-thiopyran-4-yl)-1,4-dihydropyrido[2,3-d]pyrimidin-3(2H)-yl]cyclohexyl}imidazo[1,2-a]pyridine-8-carboxamide] | 8.25 |
| O=C(N[C@H]1CC[C@@H](n2c(=O)c3cc(F)cnc3n(C3CCSCC3)c2=O)CC1)c1cc(CO)ccc1O [Example 26, N-{cis-4-[6-fluoro-2,4-dioxo-1-(tetrahydro-2H-thiopyran-4-yl)-1,4-dihydropyrido[2,3-d]pyrimidin-3(2H)-yl]cyclohexyl}-2-hydroxy-5-(hydroxymethyl)benzamide] | 8.37 |

The remaining lines, values ahead:

| pIC50 | SMILES |
| --- | --- |
| 8.23 | O=C(N[C@H]1CC[C@@H](n2c(=O)c3cc(F)cnc3n(C3CCSCC3)c2=O)CC1)c1ncccc1O [Example 20, N-{cis-4-[6-fluoro-2,4-dioxo-1-(tetrahydro-2H-thiopyran-4-yl)-1,4-dihydropyrido[2,3-d]pyrimidin-3(2H)-yl]cyclohexyl}-3-hydroxypyridine-2-carboxamide] |
| 8.56 | O=C(N[C@H]1CC[C@@H](n2c(=O)c3cc(F)cnc3n(C3CCSCC3)c2=O)CC1)c1ccco1 [Example 24, N-{cis-4-[6-fluoro-2,4-dioxo-1-(tetrahydro-2H-thiopyran-4-yl)-1,4-dihydropyrido[2,3-d]pyrimidin-3(2H)-yl]cyclohexyl}-2-furamide] |

molecular target: T1, recombinant Human Phosphodiesterase B2 (PDE4B2); assay: Human Phosphodiesterase B2 Radiometric Assay; assay type: biochemical; conditions: radiometric SPA assay, [3H]cyclic AMP 8 nM, read-out: PDE4B2 pIC50 (converted)
Description: Human Phosphodiesterase B2 Radiometric Assay
The assay uses recombinant Human Phosphodiesterase B2 (PDE4B2) produced in house (PrAZL0163), stored at −20° C. This assay is based on the observation that 5′AMP, the product of the reaction catalysed by PDE4, binds preferentially to yttrium silicate SPA beads (Amersham Biosciences, UK) compared to the substrate, cAMP. Compounds at the appropriate concentration were preincubated at 30 C for 30 min with an assay buffer containing 50 mM HEPES (pH 7.5), 8.3 mM MgCl2, 1.7 mM EGTA, 0.01% (w/v) Brij®35 and 0.1 μg/mL recombinant PDE4B2. The reaction was started by the addition of [3H]cyclic AMP to give a final concentration of 8 nM, and was stopped 20 minutes after the addition of the substrate by the addition of yttrium silicate SPA beads containing 18 mM Zn SO4. Bound [3H]cyclic AMP was measured using a Topcount NXT (Packard Bioscience, UK). pIC50 values (presented in Table 5) were determined using Xlfit3 curve fitting, using model 205.

| SMILES | IC50 [nM] |
| --- | --- |
| O=C(N[C@H]1CC[C@@H](n2c(=O)c3cc(F)cnc3n(C3CCSCC3)c2=O)CC1)C(O)c1ccc(O)cc1 (stereo partly drawn) [Example 64b, N-{cis-4-[6-fluoro-2,4-dioxo-1-(tetrahydro-2H-thiopyran-4-yl)-1,4-dihydropyrido[2,3-d]pyrimidin-3(2H)-yl]cyclohexyl}-2-hydroxy-2-(4-hydroxyphenyl)acetamide] | 0.316 |
| CN(C)c1ccc(C(=O)NC2CCC(n3c(=O)c4cc(F)cnc4n(C4CCSCC4)c3=O)CC2)cc1 (stereo not shown) [Example 67, 4-dimethylamino-N-[4-(9-fluoro-2,4-dioxo-5-tetrahydrothiopyran-4-yl-3,5,7-triazabicyclo[4.4.0]deca-6,8,10-trien-3-yl)cyclohexyl]benzamide] | 0.501 |

Other lines, results leading:

| IC50 [nM] | SMILES |
| --- | --- |
| 0.398 | O=C(N[C@H]1CC[C@@H](n2c(=O)c3cc(F)cnc3n(C3CCSCC3)c2=O)CC1)c1cn2c(n1)CCCC2 [Example 33, N-{cis-4-[6-fluoro-2,4-dioxo-1-(tetrahydro-2H-thiopyran-4-yl)-1,4-dihydropyrido[2,3-d]pyrimidin-3(2H)-yl]cyclohexyl}-5,6,7,8-tetrahydroimidazo[1,2-a]pyridine-2-carboxamide] |
| 0.126 | O=C(N[C@H]1CC[C@@H](n2c(=O)c3cc(F)cnc3n(C3CCSCC3)c2=O)CC1)c1cn2cc(F)ccc2n1 [Example 41, 6-fluoro-N-{cis-4-[6-fluoro-2,4-dioxo-1-(tetrahydro-2H-thiopyran-4-yl)-1,4-dihydropyrido[2,3-d]pyrimidin-3(2H)-yl]cyclohexyl}imidazo[1,2-a]pyridine-2-carboxamide] |
